According to patent publication US7517949B2, “Livin-derived peptides, compositions and uses thereof” (Hadasit Medical Research Services & Development Ltd., priority 2003, dated 2009):

Columns and labels:
Type in all cases: cell-based, human
LB33 Mel B1 cells = assay: Etoposide-induced apoptosis, nuclear morphology, LB33 Mel B1; details: Mel B1, high levels of Livin; etoposide 15 μg/ml
Procedure: (§1) (b) Melanoma cell lines LB33 Mel A1 and B1 were treated with etoposide (15 μg/ml). Apoptosis rate was determined by nuclear morphology, as described.
(§2) Nuclear morphology was visualized using acridin orange (Sigma) staining as described [Loo, D. T. et al. (1998) Methods Cell Biol., 57: 251-264]. […] The percentage of apoptotic to viable cells was counted by fluorescence microscopy and 500 cells were scored for each sample. Flow cytometry analysis of the apoptotic cells was done using two different methods. In the Sub-G1 assay the cells were harvested, washed with PBS and fixed using 100% methanol. […] Cells transfected with a GFP-containing plasmid were analyzed using Annexin-V-Cy5 and PI staining according to the manufacturer instructions (MBL, Japan). In stably transfected cultures with a rate of GFP-positive cells higher than 95%, all cells were analyzed for apoptosis. In transiently transfected cells, GFP expression was first analyzed (FL-1), and only GFP-positive cells were analyzed for Annexin-V-Cy5 (FL-4) and PI (FL-3) staining.
(§3) LB33 A1 and B1 are two metastatic melanoma cell lines derived from the same patient before and after vaccination with autologous melanoma cells [Ikeda, H. et al. (1997) Immunity 6: 199-208; Lehmann, F. et al. (1995) Eur. J. Immunol. […] PARP was detected in all samples, confirming similar protein content.

LB33 Mel A1 cells = assay: Etoposide-induced apoptosis, nuclear morphology, LB33 Mel A1; details: Mel A1, no Livin expression; etoposide 15 μg/ml
Procedure: as §1, §2, §3

primary melanoma cells = assay: Etoposide-induced apoptosis in primary melanoma cultures (nuclear morphology); details: etoposide 15 μg/ml, 24 and 48 hours
Procedure: FIG. 8b: Six samples were selected according to the level of Livin expression (high: 5556, 55112, moderate: 5524, 55164, or undetectable: 5530, 5533). […] Apoptosis rate was determined by nuclear morphology, as described. The data shown are representative of three independent experiments, which were also confirmed by flow cytometry, using sub-G1 assay.
Primary melanoma cells were derived and maintained as described [Lotem, M. et al. (2002) Br J Cancer, 86: 1534-1539].
Nuclear morphology was visualized using acridin orange (Sigma) staining as described [Loo, D. T. et al. (1998) Methods Cell Biol., 57: 251-264]. […] The percentage of apoptotic to viable cells was counted by fluorescence microscopy and 500 cells were scored for each sample. Flow cytometry analysis of the apoptotic cells was done using two different methods. In the Sub-G1 assay the cells were harvested, washed with PBS and fixed using 100% methanol. Following an overnight incubation at −20° C., cells were re-hydrated with PBS for 30 minutes on ice, and then resuspended in PBS with RNase A (50 μg/ml) and stained with Propidium Iodide (PI) (Sigma) at a final concentration of 5 μg/ml. Flow cytometry analysis was performed in FL2 histogram. Cells transfected with a GFP-containing plasmid were analyzed using Annexin-V-Cy5 and PI staining according to the manufacturer instructions (MBL, Japan). In stably transfected cultures with a rate of GFP-positive cells higher than 95%, all cells were analyzed for apoptosis. In transiently transfected cells, GFP expression was first analyzed (FL-1), and only GFP-positive cells were analyzed for Annexin-V-Cy5 (FL-4) and PI (FL-3) staining.
In order to determine whether Livin expression renders the melanoma cells resistant to chemotherapy, six melanoma samples were selected, according to their Livin expression. […] After 24 and 48 hours, cells were harvested and the percent of apoptosis determined in each sample by nuclear morphology (FIG. 8b). […]

COc1cc([C@@H]2c3cc4c(cc3[C@@H](O[C@@H]3O[C@@H]5CO[C@@H](C)O[C@H]5[C@H](O)[C@H]3O)[C@H]3COC(=O)[C@H]23)OCO4)cc(OC)c1O [etoposide]
response to etoposide (apoptosis by nuclear morphology) (LB33 Mel B1 cells): completely resistant | response to etoposide (apoptosis by nuclear morphology) (LB33 Mel A1 cells): rapidly underwent apoptosis | moderate resistance (percent of apoptosis) (primary melanoma cells; samples 5524 and 55164, intermediate Livin): 15-25% | apoptosis rate (primary melanoma cells; samples 5533 and 5530, no Livin expression): up to 55% | resistance to etoposide (primary melanoma cells; samples 5556 and 55112, high Livin expression): completely resistant
